The text below walks through data of patent US20070225213A1, “Nucleic acid carriers for delivery of therapeutic agents” (priority 2006, published 2007).

One series deals with 3T3. Kind of series: Toxicity of NAC-MTN vs CD-MTN and MTN, MTT (Example 9, EX042105). The class given is cell-based, mouse. How it is done: FIG. 4. […] The relative toxicity of NAC-MTN was compared with MTN and CD-MTN in four cell lines, MCF7(breast cancer), COS7green monkey kidney (SV40 transformed), 3T3 (mouse fibroblast), and BHK21(hamster kidney). Cells were treated with identical amounts of MTN formulated as either NAC-MTN, MTN only, or poly-beta-cyclodextrin-sulfylbutylether(CD-MTN). After an incubation period, cell viability was assayed with MTT assay. The differences in toxicity between NAC-MTN and MTN or NAC-MTN and CD-MTN are shown as % difference. Greater percentage difference correlates to more reduction in relative NAC-MTN toxicity.
MCF7, COS7, 3T3, and BHK21 cells were plated out in duplicate rows of equivalent cell density in 100ul final volume. Initial cell densities were 2000 cells/well.
Preparing NAC-MTN, CD-MTN, and MTN only. Combined 180 ul of 0.05 mg/ml MTN with […] 0.1 mg/ml herring sperm genomic DNA (HSGDNA, Promega), 1500 ul of 2× DMEM media containing 20% FBS to give 3.0 ml final volume and 12% final drug loading in the dsDNA. For MTN only, 180 ul of MTN was combined with 1320 ul H2O and 1500 ul 2× DMEM. […]
Aspirated media in plate and replaced with 50 ul of 0.5 mg/ml MTT in 1× media, incubated 3 hours, aspirated, air dried 5 min and dissolved in 100 ul of isopropyl, read OD at A570. […]

A short description of series [1]: In vivo MTN distribution in organs and recovery in urine after multiple i.v. dosing (Example 16, EX102205).
Protocol: Differential targeting and distribution of NAC-MTN or MTN in major organs of the mouse. NAC-MTN or MTN was administered intravenously to mice and detected in major organs after 24 hours. […] Total MTN in tissues was quantified by MTN fluorescence, normalized against total tissue weight, and reported as MTN mg/g tissue.
Mice n=2, were injected i.v. with repeated dose of either NAC-MTN or MTN alone. MTN administered was the same for each mouse.
A 0.4 ml volume of each NAC-MTN or MTN formulation was prepared for injection in HBSS or H2O (Hanks Buffered Saline, Sigma-Aldrich) as indicated below. For NAC-MTN injection, 45 ul 10 mg/ml MTN was diluted first in 325 ul of HBSS solution, then 180 ul of herring sperm DNA (HSDNA, 50 mg/ml stock neutralized, 0.2 um filtered) was added to give a turquoise blue color. […] In MTN injection, 45 ul 10 mg/ml MTN was diluted in 385 ul of H2O.
On day 1, white mice, n=2, 24 g each, were tail vein injected by a micro-catheter with 0.16 ml at 14:50 or 0.15 ml at 15:30, respectively of either NAC-MTN or MTN. A second injection was followed at 17:00 and 16:50 of 0.2 ml each of NAC-MTN or MTN. To quantify total MTN retained, mouse urine was collected after 1st and 2nd injection. Total MTN was assayed in mouse urine immediately after 1st injection and second injection by reading MTN fluorescence 620/680 s=50 of a 0.2 ml sample in a styrene well, bottom read. […] A third dose of 0.2 ml was given the next morning, 22 hours after 1st injection (day 2), of either NAC-MTN or MTN. […] Twenty four hours after first injection (day 2), mice were sacrificed and MTN assayed in major organs. The liver, kidneys, heart, and lung were homogenized at high speed 50,000 rpm, and treated with 1% SDS (sodium dodecyl sulfate). The homogenates were frozen twice and centrifuged for 30 minutes at 14000 rcf.
[2] abbreviates: three i.v. doses, 24 hours after first injection.

For `O=C1c2c(O)ccc(O)c2C(=O)c2c(NCCNCCO)ccc(NCCNCCO)c21` [MTN, mitoxantrone], the “% tox. relative to media only” value in the series on 3T3 (2 uM final MTN, MTT 48 hours after adding samples) is given as 37.57%. Moreover, in the series on 3T3 (after 24 hours, 2 uM MTN), the toxic effect result is “no toxic effect”. The “MTN % dose recov. (urine)” value in series [1] (Collect Time 0-2 hr) is recorded as 2.9%; in series [1] (Collect Time 3-12 hr) it was 12%; in series [1] (Collect Time 12-24 hr) it was 13%. Also, the “MTN Recov. (urine)” value is given as 0.0049 mg in series [1] (Collect Time 0-2 hr, dose 0.18 mg (NAC-MTN) or 0.17 mg (MTN) at 0 hr); 0.0279 mg in series [1] (Collect Time 3-12 hr, dose 0.225 mg at 3 hr); 0.0297 mg in series [1] (Collect Time 12-24 hr, dose 0.225 mg at 22 hr). Further, the “MTN in Heart” value in series [1] (setting [2]) is listed as 0.033 mg/g tissue. Also, the “MTN in Kidney” value in series [1] (setting [2]) is 0.26 mg/g tissue; in series [1] (three i.v. doses, 24 hours after first injection, listed as MTN only), 0.261 mg/g tissue. Further, in series [1] (setting [2]), the “MTN in Liver” value turned out to be 0.077 mg/g tissue. Further, the “MTN in Lung” value in series [1] (setting [2]) is on record as 0.027 mg/g tissue.
